Data on 5 compounds can be found in US6242224A, “Maltohexaose and maltoheptaose-forming amylase, and its preparation and uses” (Kabushiki Kaisha Mayashibara Seibutsu Kagaku Kenkyujo, priority 1994, dated 2001).

For this experiment, the system named is AMYLASE. The experiment can be described thus: Inhibition or promotion of AMYLASE activity by ions and EDTA. The experiment is classed as biochemical, Alcaligenes latus D2271. The note with it: for inhibition of enzyme activity: one mM metal ion. The procedure: The activity of the present AMYLASE is assayed as follows: 0.2 ml of an enzyme solution is added to 5 ml of 0.3 w/v % soluble starch in 20 mM phosphate buffer (pH 5.5) containing 1 mM CaCl2), and the mixture solution is incubated at 40° C. for 10 min, followed by sampling 0.5 ml of the resultant solution, and adding the solution to 15 ml of 0.02N sulfate solution to suspend the enzymatic reaction. The resultant is mixed with 0.2 ml of 0.1N iodine solution, stirred, allowed to stand at 25° C. for 15 min, and its absorbance at a wave length of 660 nm determined. One unit activity of the present AMYLASE is defined as the amount of enzyme which diminishes the iodine coloration of 15 mg soluble starch when reacted at 40° C. for 10 min.
Effects of temperature and pH on the enzyme activity were studied in the presence of calcium chloride in accordance with the assay as used for determining the enzyme activity. […] The thermal stability of the enzyme was determined by incubating it in 20 mM acetate buffer containing 5 mM calcium chloride (pH 6.0) at different temperatures for 60 min, cooling the buffers, and assaying the remaining enzyme activity in each buffer. The pH stability of the enzyme was determined by incubating it in 20 mM acetate buffer having different pHs at 40° C. for one hour, adjusting the buffer to pH 6.0, and assaying the remaining enzyme activity in each buffer.

As to `[Ca+2]` [calcium ion], the “promotion of activity and stabilization of AMYLASE” value (calcium ion) was “promoted its activity and stabilized”. Consider `[Cu+2]` [copper ion], for which the “inhibition of enzyme activity” value is reported as “inhibited”. As for `[Pb+2]` [lead ion], the “inhibition of enzyme activity” value is “inhibited”. Consider `[Hg+2]` [mercury ion], for which the “inhibition of enzyme activity” value is “inhibited”. Take `[Zn+2]` [zinc ion]: the “inhibition of enzyme activity” value is on record as “inhibited”.
